Bounds are passed on as bounds.

This is an account of results in ChEMBL document CHEMBL1124936, “Synthesis and antifolate properties of 9-alkyl-10-deazaminopterins” (J Med Chem, 1990).

Assay [1] deals with T1, Dihydrofolate reductase (Mus musculus, UniProt P00375).
T1 sequence (P00375 whole entry): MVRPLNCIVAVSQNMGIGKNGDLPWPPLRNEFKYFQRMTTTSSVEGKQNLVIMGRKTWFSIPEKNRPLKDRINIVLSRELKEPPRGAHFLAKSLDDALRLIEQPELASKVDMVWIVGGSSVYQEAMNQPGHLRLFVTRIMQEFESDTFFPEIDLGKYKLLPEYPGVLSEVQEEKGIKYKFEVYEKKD
The assay is described as follows: Concentration inhibiting Dihydrofolate reductase derived from L1210 cells. The format is cell-based.

The next assay deals with L1210. The assay is described as follows: Concentration inhibiting L1210 cell growth in culture. The format is functional, cell-based. The following applies: Mus musculus.
Assay [2] can be described thus: Concentration inhibiting Glycinamide ribotide formyltransferase of Lactobacillus casei. More on the design: species or system Lacticaseibacillus casei.
In a further assay the target is T2, Thymidylate synthase (Lactobacillus casei, UniProt P00469).
T2 sequence (P00469 whole entry): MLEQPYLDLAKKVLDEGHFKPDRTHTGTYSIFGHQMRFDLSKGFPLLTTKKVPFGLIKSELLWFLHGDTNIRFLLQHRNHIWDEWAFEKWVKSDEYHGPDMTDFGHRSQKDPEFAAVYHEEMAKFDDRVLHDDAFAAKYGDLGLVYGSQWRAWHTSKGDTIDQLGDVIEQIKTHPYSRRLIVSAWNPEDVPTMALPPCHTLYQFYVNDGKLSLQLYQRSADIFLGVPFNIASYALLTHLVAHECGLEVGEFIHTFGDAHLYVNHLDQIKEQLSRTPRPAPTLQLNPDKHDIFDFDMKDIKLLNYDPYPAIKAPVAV
Kind of assay: Concentration inhibiting thymidylate synthase enzyme of Lactobacillus casei. On the set-up: species or system Lacticaseibacillus casei.

Assay [3] has as its target T3, Dihydrofolate reductase (Homo sapiens, UniProt P00374).
T3 sequence (P00374 whole entry): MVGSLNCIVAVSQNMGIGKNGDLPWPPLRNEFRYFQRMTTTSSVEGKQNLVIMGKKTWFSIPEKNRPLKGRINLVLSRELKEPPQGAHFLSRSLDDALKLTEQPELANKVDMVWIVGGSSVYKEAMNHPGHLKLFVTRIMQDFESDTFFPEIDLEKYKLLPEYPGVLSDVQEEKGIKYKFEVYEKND
Kind of assay: Inhibitory activity towards dihydrofolate reductase derived from human manca leukemia cells.

Assay [4] concerns the target T1, Dihydrofolate reductase. Kind of assay: Concentration inhibiting dihydrofolate reductase derived from L1210 cells. Format: cell-based.
For assay [5], the target named is reduced folate carrier (Mus musculus). The assay is described as follows: Binding affinity towards Dihydrofolate reductase derived from L1210 cells using [3H]- MTX as the radioligand.

In general, Ki refers to the equilibrium dissociation constant of an inhibitor or competing ligand from its target. Read a low Ki as tighter binding. As usually defined, the IC50 is the point on the concentration scale where inhibition reaches its midpoint. For `CCC(Cc1ccc(C(=O)NC(CCC(=O)O)C(=O)O)cc1)c1cnc2nc(N)nc(N)c2n1` (configuration not stated), on Dihydrofolate reductase [1], the Ki worked out at 0.0055 nM. Also, the IC50 in the assay with L1210 was 4.7 nM; in assay [2] it was above 50000 nM; at Thymidylate synthase it was above 100000 nM.
Turning to `CC(Cc1ccc(C(=O)NC(CCC(=O)O)C(=O)O)cc1)c1cnc2nc(N)nc(N)c2n1` (configuration not stated), the IC50 with L1210 is 0.24 nM; on Dihydrofolate reductase [3] it was 40 nM; against Thymidylate synthase it was above 100000 nM.
In the assay on L1210, `Nc1nc(N)c2nc(CCc3ccc(C(=O)N[C@@H](CCC(=O)O)C(=O)O)cc3)cnc2n1` gave an IC50 of 1.5 nM. For the same molecule, the Ki came to 0.0034 nM at Dihydrofolate reductase [4] and 1200 nM in assay [5].
On to `CN(Cc1cnc2nc(N)nc(N)c2n1)c1ccc(C(=O)N[C@@H](CCC(=O)O)C(=O)O)cc1` [METHOTREXATE], for which, in the assay with L1210, the IC50 is 5 nM. In other words, the single-digit nanomolar range.
The same measure, in the same setting: the figure for `CCC(Cc1cnc2nc(N)nc(N)c2n1)c1ccc(C(=O)N[C@@H](CCC(=O)O)C(=O)O)cc1` (some centres not stated) [EDATREXATE] is 0.65 nM.
